According to US8268848B2, “Cyclopropane compound” (Eisai R&D Management Co., Ltd., priority 2010, dated 2012):
Like-named read-outs stand apart in the source and are kept apart here.

Assays:
OX2 = biological target: T1, OX2 (Homo sapiens, UniProt O43614); assay: Measurement of orexin receptor-binding ability ([125I]-OX-A, cell membranes, OX2); parameters: expressed in transfected cells; host or cells: CHO cells (membrane preparation); conditions: membranes of recombinant CHO cells expressing OX2, 0.2 nM [125I]-OX-A
T1 sequence (O43614 1-444): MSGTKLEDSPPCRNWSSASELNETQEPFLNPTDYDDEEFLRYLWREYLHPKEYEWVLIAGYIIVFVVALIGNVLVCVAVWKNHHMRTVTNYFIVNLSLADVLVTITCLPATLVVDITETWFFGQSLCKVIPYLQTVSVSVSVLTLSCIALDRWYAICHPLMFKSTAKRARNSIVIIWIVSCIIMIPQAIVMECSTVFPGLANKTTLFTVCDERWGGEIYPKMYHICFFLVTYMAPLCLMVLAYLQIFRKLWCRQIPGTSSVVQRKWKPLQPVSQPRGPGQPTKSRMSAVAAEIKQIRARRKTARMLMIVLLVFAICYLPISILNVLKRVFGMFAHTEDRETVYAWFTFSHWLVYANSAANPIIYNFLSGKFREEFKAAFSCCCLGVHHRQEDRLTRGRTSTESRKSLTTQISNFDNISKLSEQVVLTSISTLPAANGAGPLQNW

OX1 = biological target: T2, OX1 (Homo sapiens, UniProt O43613); assay: Measurement of orexin receptor-binding ability ([125I]-OX-A, cell membranes, OX1); parameters: expressed in transfected cells; host or cells: CHO cells (membrane preparation)
T2 sequence (O43613 1-425): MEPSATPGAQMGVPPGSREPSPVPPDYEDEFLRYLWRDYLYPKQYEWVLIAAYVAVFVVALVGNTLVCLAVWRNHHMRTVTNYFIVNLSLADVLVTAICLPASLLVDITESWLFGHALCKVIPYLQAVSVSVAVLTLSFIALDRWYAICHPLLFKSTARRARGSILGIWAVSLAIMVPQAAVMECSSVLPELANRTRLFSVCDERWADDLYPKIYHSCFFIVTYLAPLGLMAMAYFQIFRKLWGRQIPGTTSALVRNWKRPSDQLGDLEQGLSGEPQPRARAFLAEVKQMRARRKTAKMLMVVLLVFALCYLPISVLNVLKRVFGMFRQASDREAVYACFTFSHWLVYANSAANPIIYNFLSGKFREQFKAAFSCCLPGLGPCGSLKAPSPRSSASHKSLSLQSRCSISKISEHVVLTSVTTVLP

[1] = membranes of recombinant CHO cells expressing OX1, 0.2 nM [125I]-OX-A, read-out: OX1 (IC50)

| Structure (SMILES) | IC50 (OX2; read-out: OX2 (IC50)) [nM] | IC50 (OX1; [1]) [nM] | IC50 (OX2; OX2 (IC50) nM) [nM] | IC50 (OX1) [nM] |
| --- | --- | --- | --- | --- |
| COc1cc(NC(=O)[C@@H]2C[C@@]2(COc2cnc(C)nc2C)c2ccc(F)c(F)c2)ncc1F [Example 173, (1R,2S)-2-(3,4-difluorophenyl)-2-{[(2,4-dimethylpyrimidin-5-yl)oxy]methyl}-N-(5-fluoro-4-methoxypyridin-2-yl)cyclopropanecarboxamide] | 3.3 | 3.6 |  |  |
| Cc1ncc(OC[C@@]2(c3ccccc3)C[C@H]2C(=O)Nc2cccc(F)c2)c(C)n1 [Example 79] |  |  | 26 | 90 |
| Cc1ncc(OC[C@@]2(c3cccc(F)c3)C[C@H]2C(=O)Nc2ccc(F)cn2)c(CF)n1 [Example 320, (1R,2S)-2-{[(4-fluoromethyl-2-methylpyrimidin-5-yl)oxy]methyl}-2-(3-fluorophenyl)-N-(5-fluoropyridin-2-yl)cyclopropanecarboxamide] |  |  | 2.3 | 12.3 |
| Cc1ncc(OCC2(c3cccc(Br)c3)CC2C(=O)Nc2ccc(F)cn2)c(C)n1 (stereo not shown) [Example 271] |  |  | 5 | 18 |
| Cc1ccc(NC(=O)[C@@H]2C[C@@]2(COc2cnc(C)nc2C)c2ccccc2)nc1 [Example 69] |  |  | 34 | 126 |
| Cc1ncc(OC[C@@]2(c3cccs3)C[C@H]2C(=O)Nc2ccc(F)cn2)c(C)n1 [Example 268] |  |  | 36 | 164 |
| Cc1ncc(OC[C@@]2(c3ccccc3)C[C@H]2C(=O)Nc2cnc(F)c(C)c2)c(C)n1 [Example 57] | 35 | 532 |  |  |
| COc1cccc(C2(COc3cnc(C)nc3C)CC2C(=O)Nc2cccnc2)c1 (stereo not shown) [Example 184] | 21 | 784 |  |  |
| Cc1ncc(OC[C@@]2(c3ccsc3)C[C@H]2C(=O)Nc2ccc(Cl)cn2)c(C)n1 [Example 269] | 23 | 264 |  |  |
| COc1cccc(C2(COc3cnc(C)nc3C)CC2C(=O)Nc2ccc(Cl)cn2)c1 (stereo not shown) [Example 185] |  |  | 7 | 24 |
| Cc1ncc(OC[C@@]2(c3cccc(F)c3)C[C@H]2C(=O)Nc2ccccn2)c(C)n1 [Example 87] |  |  | 10 | 43 |
| Cc1ncc(OCC2(c3ccccc3Cl)CC2C(=O)Nc2ccc(C#N)cn2)c(C)n1 (stereo not shown) [Example 153] |  |  | 32 | 447 |
| Cc1ncc(OC[C@@]2(c3ccccc3)C[C@H]2C(=O)Nc2cccc(CO)c2)c(C)n1 [Example 17] | 38 | 294 |  |  |
| Cc1ncc(OC[C@@]2(c3ccccc3)C[C@H]2C(=O)Nc2cnc(Cl)c(C(F)(F)F)c2)c(C)n1 [Example 60] | 105 | > 2000 |  |  |
| Cc1ncc(OC[C@@]2(c3cccc(F)c3)C[C@H]2C(=O)Nc2cc(Cl)ccn2)c(C)n1 [Example 85, (1R,2S)-N-(4-chloropyridin-2-yl)-2-{[(2,4-dimethylpyrimidin-5-yl)oxy]methyl}-2-(3-fluorophenyl)cyclopropanecarboxamide] |  |  | 5 | 4 |
| CCc1nc(C)ncc1OC[C@@]1(c2ccc(F)cc2)C[C@H]1C(=O)Nc1ccc(F)cn1 [Example 246, (1R,2S)-2-{[(4-ethyl-2-methylpyrimidin-5-yl)oxy]methyl}-2-(4-fluorophenyl)-N-(5-fluoropyridin-2-yl)cyclopropanecarboxamide] |  |  | 4 | 16 |
| Cc1ncc(OCC2(c3ccc(F)cc3)CC2C(=O)Nc2ccc(C#N)cn2)c(C)n1 (stereo not shown) [Example 101] | 84 | 290 |  |  |
| Cc1ncc(OCC2(c3cccc(Cl)c3)CC2C(=O)Nc2ccc(Cl)cn2)c(C)n1 (stereo not shown) [Example 155] |  |  | 6 | 10 |
| COCc1nc(C)ncc1OC[C@@]1(c2cccc(F)c2)C[C@H]1C(=O)Nc1ccc(C#N)cn1 [Example 200] |  |  | 12 | 67 |
| Cc1ncc(OCC2(c3cccc(C(F)(F)F)c3)CC2C(=O)Nc2cccnc2)c(C)n1 (stereo not shown) [Example 277] | 104 | 2210 |  |  |
